“Also recorded” adds a separate entry of the source. Square brackets hold non-standard residues; d marks the D form. Ends that are not written are not given here. Peptide text beside a SMILES is read from it.
Legend:
[1] = Mass spectrometry analysis of Ringers solution from Ussing chambers during ex vivo recovery (degradation and fragment formation); format: in vitro ADME, pig; settings: for Fragment detected in Ringers solution during ex vivo recovery: Ussing chambers with ischemia-injured jejunum in presence of parent peptide (LA or A6), MS analysis, N = 4; for half-life: pig, tissue, pH 7.4, Ussing chamber Ringers solution, ex vivo recovery 240 minutes, LC-MS/MS, n = 4, read-out: Half-life in ischemic injured jejunum tissue
Text: After 45-minutes of ischemia, the pigs were euthanized, and intestinal segments were collected. Non-ischemic control tissue was also collected at this time. Following tissue collection, the seromuscular layer was stripped from the mucosa while the tissue was bathed in oxygenated (95% O2, 5% CO2) Ringer’s solution (in mmol/L: 154 Na^+, 6.3 K^+, 137 Cl^-, and 24 HCO3^-; pH 7.4). The mucosa was subsequently mounted in 1.1-cm^2 aperture Ussing chambers, as described in previous studies. Tissues were bathed on both the mucosal and serosal sides with 10mL Ringer’s solution. The mucosal bathing solution contained 10mM mannitol while the serosal side was osmotically balanced with 10mM glucose. Bathing solutions were oxygenated (95% O2, 5% CO2) and circulated in water-jacketed reservoirs. The spontaneous potential difference (PD) was measured using Ringer-agar bridges connected to calomel electrodes, and the PD was short-circuited through Ag-AgCl electrodes using a voltage clamp that was corrected for fluid resistance. TER (Ω·cm^2) was calculated from the spontaneous PD and short-circuit current (Isc). If the spontaneous PD was between -1.0 and 1.0 mV, tissues were current clamped at ± 100 μA for 5-seconds, and the PD was recorded. Isc and PD were recorded at 15-minute intervals over a 4-hour experiment. After tissues were mounted on Ussing chambers, all tissues were allowed to acclimate for a period of 30-minutes to establish stable baseline measurements, after which experimental, single-dose treatments of LA, LA fragments (F1, F2, or F3) with or without LA, A6, or A6 with or without A6 fragments (A6F1 or A6F2) were added to the apical chamber. For the microdosing regimen of LA, multiple doses at various concentrations of LA were added initially after the 30-minute acclimation period and every 45-minutes following this initial dose. Tissues were monitored by measuring transepithelial resistance (TER) for 240 minutes. Samples of Ringers solution were collected at select timepoints and quenched with 5% trifluoroacetic acid (TFA) solution (in 80% acetonitrile (ACN): 20% DI water). […] Standardization of ischemic injury severity between intestinal loops was standardized using a similar method as previously described in another intestinal mucosal injury model. First, T = 0 TER values from separate studies utilizing juvenile porcine intestinal ischemic tissue across three years were averaged (24 Ω·cm^2), and the standard deviation of this dataset was calculated (11 Ω·cm^2). Tissues with a T = 0 TER value exceeding one standard deviation of the mean (i.e., < 13 or > 35 Ω·cm^2) were excluded from experiments and data analysis.

[2] = molecular target: T1, aminopeptidase M (Sus scrofa, UniProt P15145); settings: LA 0.2 mg/mL in SIF without pancreatin pH 6.5, 10 μM MgCl2, AM 0.66 unit/mL (porcine kidney), 37°C; UPLC-MS/MS; two separate runs
T1 sequence (P15145 1-963): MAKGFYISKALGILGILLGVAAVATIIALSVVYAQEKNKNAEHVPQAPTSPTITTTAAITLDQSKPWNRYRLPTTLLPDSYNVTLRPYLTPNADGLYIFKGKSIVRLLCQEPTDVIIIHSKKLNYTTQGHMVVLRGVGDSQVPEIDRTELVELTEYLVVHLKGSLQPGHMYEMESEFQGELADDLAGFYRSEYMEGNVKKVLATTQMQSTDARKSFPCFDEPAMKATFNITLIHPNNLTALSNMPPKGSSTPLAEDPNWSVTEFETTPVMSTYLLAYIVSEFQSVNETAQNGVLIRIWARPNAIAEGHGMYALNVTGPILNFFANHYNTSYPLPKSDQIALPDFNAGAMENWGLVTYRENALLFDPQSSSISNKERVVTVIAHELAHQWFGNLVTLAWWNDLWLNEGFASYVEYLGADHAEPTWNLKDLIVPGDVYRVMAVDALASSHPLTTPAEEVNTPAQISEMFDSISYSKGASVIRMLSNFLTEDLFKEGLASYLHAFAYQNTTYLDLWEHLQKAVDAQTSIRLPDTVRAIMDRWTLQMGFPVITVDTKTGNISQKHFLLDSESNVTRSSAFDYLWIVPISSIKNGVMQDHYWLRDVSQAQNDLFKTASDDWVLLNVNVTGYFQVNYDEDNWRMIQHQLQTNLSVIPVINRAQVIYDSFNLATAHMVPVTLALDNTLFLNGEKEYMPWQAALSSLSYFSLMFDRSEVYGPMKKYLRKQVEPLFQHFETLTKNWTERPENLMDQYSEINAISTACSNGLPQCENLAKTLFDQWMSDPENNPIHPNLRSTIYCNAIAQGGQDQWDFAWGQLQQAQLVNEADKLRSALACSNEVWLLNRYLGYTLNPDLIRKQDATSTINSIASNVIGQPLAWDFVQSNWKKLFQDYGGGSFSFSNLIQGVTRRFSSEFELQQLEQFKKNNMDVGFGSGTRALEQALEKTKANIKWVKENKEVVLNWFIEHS
Protocol: Aminopeptidase M (AM) degradation of LA in vitro was carried out as follows. LA solution (0.2 mg/mL) in simulated intestinal fluid (SIF) (without Pancreatin), USP XXII Formulation: Ricca Chemical) pH 6.5 containing MgCl2 (10 μM; catalyst support) was combined with AM (porcine kidney: Sigma) solution (final AM concentration is 0.66 unit/mL) in a vial. The combined mixture was incubated at 37°C in a shaker water bath, and samples for UPLC-MS analysis were collected at various timepoints quenched with 5% TFA solution (in 80% ACN: 20% DI water). Quenched samples were centrifuged at 13000xg for 5-minutes and the resulting supernatants were stored at -80°C for future MS analysis.
A simple and sensitive liquid chromatography/tandem mass spectrometric (LC-MS/MS) method was developed for the identification and quantification of LA and its digestive fragments in the enzyme digest solution and other matrices. Samples were prepared with simple ACN and TFA in water quenching of the enzyme activity and precipitation of protein(s). The supernatant was then diluted appropriately and analyzed directly using the UPLC-MS/MS method Chromatographic separations were achieved on a C18 reversed phase column using an ACN and TFA-water gradient. The detection was performed in MS/MS mode via positive electrospray ionization (ESI+) interface.
A Waters Quattro Xevo TOD mass spectrometer equipped with an electrospray ionization source and a Waters Acquity™ UPLC BEH system (Waters, Milford, MA, USA) with a binary solvent and a sample manager was used in this study. The LC column (Waters, C18, 50×2.1 mm, 1.7 μm) was operated at 35°C and the autosampler was operated at ambient temperature. A binary mobile phase (mobile phase A and mobile phase B) with a linear solvent gradient system was used for the chromatographic separations of larazotide and its digestive fragments. Mobile phase A, 0.02% TFA in water and mobile phase B, 0.02% TFA in ACN. The UPLC-MS/MS method was qualified for the determination and identification of larazotide and the larazotide digestive fragments in the enzyme digest solution.

[3] = system: Aminopeptidase M (AM); experiment: AM (porcine kidney: Sigma) in simulated intestinal fluid (SIF) (without Pancreatin) pH 6.5 containing MgCl2 (10 μM); settings: 37°C, up to 180 minutes
[4] = Ringers solution bathing ischemia-injured porcine jejunal mucosa mounted in Ussing chambers (ex vivo recovery); settings: Yorkshire crossbred pigs, up to 240 minutes

Compound	Fragment detected in Ringers solution during ex vivo recovery [1]	Degradation by aminopeptidase M and presence of fragments [2]	further results
CC(C)C[C@@H](NC(=O)[C@H](NC(=O)CN)C(C)C)C(=O)N[C@@H](C(=O)N[C@H](CCC(N)=O)C(=O)N1CCC[C@@H]1C(=O)NCC(=O)O)C(C)C [A6F1] (H-G[dV][dL][dV][dQ][dP]G-OH)	predominant fragment formed		
CC(C)C[C@@H](NC(=O)[C@H](N)C(C)C)C(=O)N[C@@H](C(=O)N[C@H](CCC(N)=O)C(=O)N1CCC[C@@H]1C(=O)NCC(=O)O)C(C)C [A6F2] (H-[dV][dL][dV][dQ][dP]G-OH)	formation		
CC(C)C[C@@H](NC(=O)[C@H](N)C(C)C)C(=O)N[C@@H](C(=O)N[C@H](CCC(N)=O)C(=O)N1CCC[C@@H]1C(=O)O)C(C)C [A6F4] (H-[dV][dL][dV][dQ][dP]-OH)	formation		
CC(C)C[C@@H](NC(=O)[C@H](NC(=O)CNC(=O)CN)C(C)C)C(=O)N[C@@H](C(=O)N[C@H](CCC(N)=O)C(=O)N1CCC[C@@H]1C(=O)NCC(=O)O)C(C)C [A6] (H-GG[dV][dL][dV][dQ][dP]G-OH)			Stability to brush-border enzyme degradation compared with LA ([1]; ex vivo stability data, Ussing chamber): significantly more stable; half-life [1]: 78 min
GGVLVQP [F3]	highest concentration out of all four fragments		
GGVLVQPG [LA, Larazotide acetate]		fragmented throughout the entirety of the experiment	half-life [1]: 35 min
GVLVQPG [F1]	are formed	found in all samples collected during the run	
H-GGVLVQPG-OH			cleaved bond [3]: Gly-Val; cleaved bond [4]: Gly-Val; also recorded: Pro-Gly, major
VLVQP [F4]	detected		
VLVQPG [F2]	are formed	not being detected after 90 minutes	
